The values that follow come from patent publication US11072628B2, “Nucleoside analogues for the treatment of parasitic infections” (UNIVERSITEIT GENT, priority 2017, dated 2021).

A word on the EC50: it is the concentration giving half of the maximal effect.

SMILES strings stand for the structures. Like-named read-outs stand apart in the source and are kept apart here.

The test system of one data set is T. brucei Squib 427. Kind of data set: In vitro drug susceptibility, T. brucei Squib 427 (resazurin). The class given is cell-based, Trypanosoma brucei brucei. The following applies: for EC50: Trypanosoma brucei. As to the method:
(§1) All trypanosome strains were cultured in the standard HMI-9 medium supplemented with 10% fetal bovine serum (FBS) at 37° C. in a 5% CO2 atmosphere.
On the technique in general: Resazurin is reduced to fluorescent resorufin, in cell work by metabolically active cells.

The test system of data set [1] is T. b. rhodesiense STIB-900. As to the kind of experiment: In vitro drug susceptibility, T. b. rhodesiense STIB-900 (resazurin). It is filed as cell-based, Trypanosoma brucei rhodesiense. Particulars: Trypanosoma brucei, RHODESIENSE
As to the method:
as §1

The nature of data set [2]: Cytotoxicity against MRC-5 fibroblasts. The following applies: human. As to the method:
Cytotoxicity was assayed against MRC-5 fibroblasts. Results are depicted in Tables 4 and 5.

The test system of data set [3] is T. cruzi Tulahuen CL2 β galactosidase strain. Kind of data set: T. cruzi Tulahuen CL2 β galactosidase strain on MRC-5SV2 cells (CPRG). The following applies: Trypanosoma cruzi, TULAHUEN, MRC-5 SV2. It is filed as cell-based, Trypanosoma cruzi. As to the method:
All cultures and assays were conducted at 37° C./5% CO2. […] The results were expressed as % reduction in parasite burdens compared to control wells from which an EC50 was calculated.

The mark [4] stands for this setting: read-out: T. brucei brucei EC50, Table 1, average of 2-4 independent determinations.
[5] abbreviates: MRC-5 fibroblasts, MRC-5 EC50, Table 1, cytotoxicity.
Setting [6] is: MRC-5 fibroblasts, MRC-5 EC50, Table 2, cytotoxicity.
Where [7] appears, read: Table 2, average of 2-3 independent replicates.
Setting [8] is: Table 1, average of 2-4 independent determinations, read-out: T. brucei brucei EC50.
The mark [9] stands for this setting: Table 1, average of 2-4 independent determinations, read-out: T. brucei rhod. EC50.
Setting [10] is: read-out: T.b. brucei EC50, Table 4, average of 2-6 independent determinations.
[11] abbreviates: MRC-5 fibroblasts, MRC-5 EC50, Table 4, cytotoxicity.
Setting [12] is: MRC-5 fibroblasts, MRC-5 EC50, Table 5, cytotoxicity.
[13] abbreviates: Table 5, average of 2-4 independent replicates.

Consider `Nc1ncnc2c1c(Br)cn2[C@@H]1O[C@H](CO)C[C@@H]1O` [FH10628, 4-amino-5-bromo-N7-(2′-arabino-3′-deoxy-β-D-ribofuranosyl)-pyrrolo[2,3-d]pyrimidine], for which the EC50 with T. brucei Squib 427 (setting [4]) is 130 nM; in data set [1] (read-out: T. brucei rhod. EC50), 30 nM; in data set [2] (setting [5]) it was 45600 nM; in data set [2] (setting [6]), 45600 nM; in data set [3] (setting [7]) it was 1470 nM.
`CC(C)(C)[Si](C)(C)O[C@@H]1C[C@@H](CO)O[C@H]1n1cc(Br)c2c(N)ncnc21` [FH9552, 4-amino-5-bromo-N7-(2′-O-t-butyldimethylsilyl-3′-deoxy-β-D-ribofuranosyl)-pyrrolo[2,3-d]pyrimidine]: the figures for the half-maximal effective concentration (EC50) (in the data set with T. brucei Squib 427 (setting [8]); in data set [1] (setting [9]); in data set [2]) were 630 nM, 270 nM and over 64000 nM, respectively.
As for `CN(C)c1ncnc2c1c(Br)cn2[C@@H]1O[C@H](CO)C[C@H]1O` [FH8522, 4-dimethylamino-5-bromo-N7-(3′-deoxy-β-D-ribofuranosyl)-pyrrolo[2,3-d]pyrimidine], the EC50 was 1880 nM in the data set on T. brucei Squib 427 (setting [4]); 790 nM in data set [1] (read-out: T. brucei rhod. EC50); over 64000 nM in data set [2] (setting [5]); over 64000 nM in data set [2] (setting [6]); 20900 nM in data set [3] (setting [7]).
In the case of `Nc1ncnc2c1c(-c1ccc(F)cn1)cn2[C@@H]1O[C@H](CO)[C@@H](O)[C@H]1O` [MS1037, 4-amino-5-(5-fluoro-pyrid-2-yl)-N7-(β-D-ribofuranosyl)-pyrrolo[2,3-d]pyrimidine], the EC50 is 4770 nM in the data set on T. brucei Squib 427 (setting [10]); 1690 nM in data set [1] (read-out: T.b. rhod. EC50); over 64000 nM in data set [2] (setting [11]); over 64000 nM in data set [2] (setting [12]); 31900 nM in data set [3] (setting [13]).
Consider `Nc1ncnc2c1c(Br)cn2[C@@H]1O[C@H](CO)[C@@H](O)[C@H]1O` [TH1003], for which the EC50 in the data set on T. brucei Squib 427 (Table 4, average of 2-6 independent determinations, read-out: T.b. brucei EC50) amounted to 1240 nM; in data set [1] (Table 4, average of 2-6 independent determinations, read-out: T.b. rhod. EC50) it was 120 nM; in data set [2] (MRC-5 EC50) it was 33300 nM; in data set [3] (setting [13]) it was 390 nM.
Regarding `COc1ncnc2c1c(Br)cn2[C@@H]1O[C@H](CO)[C@@H](O)[C@H]1O` [FH9528, 4-methoxy-5-bromo-(N7-β-D-ribofuranosyl)-pyrrolo[2,3-d]pyrimidine], the EC50 in the data set on T. brucei Squib 427 (setting [10]) was 190 nM; in data set [1] (read-out: T.b. rhod. EC50) it was 40 nM; in data set [2] (setting [11]), over 64000 nM; in data set [2] (setting [12]) it was over 64000 nM; in data set [3] (setting [13]) it was 24100 nM.
On to `CC(C)(C)[Si](C)(C)OC[C@@H]1C[C@@H](O)[C@H](n2cc(Br)c3c(N)ncnc32)O1` [FH8471, 4-Amino-5-Bromo-N7-(3′-Deoxy-5′-O-t-Butyl-Dimethylsilyl)-β-D-Ribofuranosyl-Pyrrolo[2,3-d]pyrimidine], for which the half-maximal effective concentration (EC50) in the data set on T. brucei Squib 427 (setting [8]) was determined as 1210 nM; in data set [1] (setting [9]) it was 80 nM; in data set [2] it was 5310 nM.
Consider `CCCOc1ncnc2c1c(Cl)cn2[C@@H]1O[C@H](CO)[C@@H](O)[C@H]1O` [FH9532, 4-n-propoxy-5-chloro-N7-(β-D-ribfuranosyl)-pyrrolo[2,3-d]pyrimidine], for which the EC50 in the data set with T. brucei Squib 427 (setting [10]) worked out at 80 nM; in data set [1] (read-out: T.b. rhod. EC50), 80 nM; in data set [2] (setting [11]), 2810 nM; in data set [2] (setting [12]), 2810 nM; in data set [3] (setting [13]) it was 1040 nM.
As for `Nc1ncnc2c1ccn2[C@@H]1O[C@H](CO)C[C@@H]1O` [FH10650, 4-amino-N7-(2′-arabino-3′-deoxy-β-D-ribofuranosyl)-pyrrolo[2,3-d]pyrimidine], the EC50 in the data set with T. brucei Squib 427 (setting [4]) is 6620 nM; in data set [1] (read-out: T. brucei rhod. EC50), 600 nM; in data set [2] (setting [5]), over 64000 nM; in data set [2] (setting [6]), over 64000 nM; in data set [3] (setting [7]) it was over 64000 nM.
Regarding `Nc1ncnc2c1c(Cl)cn2[C@@H]1O[C@H](CO)C[C@H]1O` [FH8470], the EC50 worked out at 2 nM with T. brucei Squib 427 (setting [4]), 0.4 nM in data set [1] (read-out: T. brucei rhod. EC50) and 50 nM in data set [3] (setting [7]).
In the case of `CC(C)Oc1ncnc2c1c(Cl)cn2[C@@H]1O[C@H](CO)[C@@H](O)[C@H]1O` [FH9531, 4-isopropoxy-5-chloro-N7-(β-D-ribfuranosyl)-pyrrolo[2,3-d]pyrimidine], the EC50 was 90 nM in the data set with T. brucei Squib 427 (setting [10]); 100 nM in data set [1] (read-out: T.b. rhod. EC50); over 64000 nM in data set [2] (setting [11]); over 64000 nM in data set [2] (setting [12]); 22700 nM in data set [3] (setting [13]).
Regarding `CCCCOc1ncnc2c1c(Cl)cn2[C@@H]1O[C@H](CO)[C@@H](O)[C@H]1O` [FH9530, 4-n-butoxy-5-chloro-N7-(β-D-ribofuranosyl)-pyrrolo[2,3-d]pyrimidine], the EC50 in the data set on T. brucei Squib 427 (setting [10]) was 70 nM; in data set [1] (read-out: T.b. rhod. EC50) it was 40 nM; in data set [2] (setting [11]), 1320 nM; in data set [2] (setting [12]), 1320 nM; in data set [3] (setting [13]), 450 nM.
For `C=Cc1cn([C@@H]2O[C@H](CO)C[C@H]2O)c2ncnc(N)c12` [FH10659, 4-amino-5-vinyl-N7-(3′-deoxy-β-D-ribfuranosyl)-pyrrolo[2,3-d]pyrimidine], the EC50 in the data set on T. brucei Squib 427 (setting [4]) came out at 40 nM; in data set [1] (read-out: T. brucei rhod. EC50), 5 nM; in data set [3] (setting [7]), 9440 nM.
In the case of `Nc1ncnc2c1c(I)cn2[C@@H]1O[C@H](CO)C[C@H]1O` [FH8496, 4-amino-5-iodo-N7-(3′-deoxy-β-D-ribfuranosyl)-pyrrolo[2,3-d]pyrimidine], the EC50 was 10 nM in the data set with T. brucei Squib 427 (setting [4]), 1 nM in data set [1] (read-out: T. brucei rhod. EC50) and 30 nM in data set [3] (setting [7]).
As to `Cc1ccc(-c2cn([C@@H]3O[C@H](CO)C[C@H]3O)c3ncnc(N)c23)cc1` [FH8481, 4-amino-5-(4-methylphenyl)-N7-(3′-deoxy-β-D-ribofuranosyl)-pyrrolo[2,3-d]pyrimidine], the EC50 stood at 33200 nM in the data set with T. brucei Squib 427 (setting [4]); 18400 nM in data set [1] (read-out: T. brucei rhod. EC50); 21000 nM in data set [2] (setting [5]); 21000 nM in data set [2] (setting [6]); 460 nM in data set [3] (setting [7]).
For `Nc1ncnc2c1c(F)cn2[C@@H]1O[C@H](CO)C[C@H]1O` [FH8517, 4-amino-5-fluoro-N7-(3′-deoxy-β-D-ribofuranosyl)-pyrrolo[2,3-d]pyrimidine], the EC50 in the data set with T. brucei Squib 427 (setting [4]) stood at 2 nM; in data set [1] (read-out: T. brucei rhod. EC50), 0.3 nM; in data set [2] (setting [5]), 3600 nM; in data set [2] (setting [6]) it was 3600 nM; in data set [3] (setting [7]) it was 1220 nM.
For the molecule `Nc1ccnc2c1c(I)cn2[C@@H]1O[C@H](CO)[C@@H](O)[C@H]1O` [FH5319, 3-iodo-4-amino-N1-(β-D-ribofuranosyl)-pyrrolo[2,3-b]pyridine], the EC50 in the data set on T. brucei Squib 427 (setting [10]) was 400 nM; in data set [1] (read-out: T.b. rhod. EC50), over 64000 nM; in data set [2] (setting [11]), over 64000 nM; in data set [2] (setting [12]), over 64000 nM; in data set [3] (setting [13]), 40 nM.
On to `COc1ncnc2c1c(Cl)cn2[C@@H]1O[C@H](CO)[C@@H](O)[C@H]1O` [FH8446, 4-methoxy-5-chloro-N7-(β-D-ribfuranosyl)-pyrrolo[2,3-d]pyrimidine], for which the EC50 with T. brucei Squib 427 (setting [10]) is 160 nM; in data set [1] (read-out: T.b. rhod. EC50), 40 nM; in data set [2] (setting [11]), 48000 nM; in data set [2] (setting [12]), 48000 nM; in data set [3] (setting [13]), 12700 nM.
Regarding `Nc1ncnc2c1c(-c1cccnc1)cn2[C@@H]1O[C@H](CO)[C@@H](O)[C@H]1O` [FH4185, 4-amino-5-(pyrid-3-yl)-N7-(β-D-ribofuranosyl)-pyrrolo[2,3-d]pyrimidine], in the data set on T. brucei Squib 427, the “anti-trypanosomal activity against T. brucei, in words” value is recorded as “no discernible trypanocidal effects”. Also, the EC50 is over 64000 nM in the data set on T. brucei Squib 427 (setting [10]), over 64000 nM in data set [2] (setting [11]), over 64000 nM in data set [2] (setting [12]) and 15400 nM in data set [3] (setting [13]).
For the molecule `CCOc1ncnc2c1c(Cl)cn2[C@@H]1O[C@H](CO)[C@@H](O)[C@H]1O` [FH9529, 4-ethoxy-5-chloro-N7-(β-D-ribfuranosyl)-pyrrolo[2,3-d]pyrimidine], the EC50 with T. brucei Squib 427 (setting [10]) is 120 nM; in data set [1] (read-out: T.b. rhod. EC50) it was 60 nM; in data set [2] (setting [11]), 48500 nM; in data set [2] (setting [12]), 48500 nM; in data set [3] (setting [13]) it was 6290 nM.
In the case of `Nc1ncnc2c1c(Br)cn2[C@@H]1O[C@H](CO)C[C@H]1O` [FH7429_U, 4-amino-5-bromo-N7-(3′-deoxy-β-D-ribofuranosyl)-pyrrolo[2,3-d]pyrimidine], the EC50 in the data set on T. brucei Squib 427 (setting [4]) was 2 nM; in data set [1] (read-out: T. brucei rhod. EC50), under 0.5 nM; in data set [2] (setting [5]), 16100 nM; in data set [2] (setting [6]), 16100 nM; in data set [3] (setting [7]) it was 20 nM.
For the molecule `Nc1ncnc2c1c(-c1ccc(Cl)cc1Cl)cn2[C@@H]1O[C@H](CO)C[C@H]1O` [FH9581, 4-amino-5-(2,4-dichlorophenyl)-N7-(3′-deoxy-β-D-ribofuranosyl)-pyrrolo[2,3-d]pyrimidine], the EC50 turned out to be 19600 nM with T. brucei Squib 427 (setting [4]); 7300 nM in data set [1] (read-out: T. brucei rhod. EC50); 19600 nM in data set [2] (setting [5]); 19600 nM in data set [2] (setting [6]); 500 nM in data set [3] (setting [7]).
Turning to `Nc1ncnc2c1c(-c1cccc(Cl)n1)cn2[C@@H]1O[C@H](CO)[C@@H](O)[C@H]1O` [MS1034, 4-amino-5-(6-chloro-pyrid-2-yl)-N7-(β-D-ribofuranosyl)-pyrrolo[2,3-d]pyrimidine], the EC50 was 1750 nM in the data set with T. brucei Squib 427 (setting [10]); 620 nM in data set [1] (read-out: T.b. rhod. EC50); over 64000 nM in data set [2] (setting [11]); over 64000 nM in data set [2] (setting [12]); over 64000 nM in data set [3] (setting [13]).
Take `O=C(Cn1ccnc1[N+](=O)[O-])NCc1ccccc1` [Benznidazole, reference compound]: in data set [3] (setting [7]), the EC50 is 2400 nM.
